Assay results taken from PubChem BioAssay (NCI).
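In this assay, cells in 96-well plates receive the compound at five concentrations for 48 hours. Endpoints are linearly interpolated between the surrounding concentrations. TGI marks complete inhibition of growth.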

What was measured:
Assay in all cases: NCI tumour cell line growth inhibition, 48 h
[1] = test system: CAKI-1 renal
[2] = test system: MCF7 breast
[3] = test system: SNB-75 CNS
[4] = test system: HCC-2998 colon
[5] = test system: UACC-62 melanoma
[6] = test system: MOLT-4 leukemia
[7] = test system: KM20L2 colon
[8] = test system: CCRF-CEM leukemia
[9] = test system: U251 CNS
[10] = test system: HOP-18 NSCLC
[11] = test system: A549 NSCLC
[12] = test system: SNB-78 CNS
[13] = test system: HL-60(TB) leukemia
[14] = test system: RXF 393 renal
[15] = test system: SNB-19 CNS
[16] = test system: EKVX NSCLC
[17] = test system: OVCAR-5 ovarian
[18] = test system: MALME-3M melanoma
[19] = test system: SK-MEL-5 melanoma
[20] = test system: UO-31 renal
[21] = test system: LOX IMVI melanoma
[22] = test system: M19-MEL melanoma
[23] = test system: SK-MEL-28 melanoma
[24] = test system: OVCAR-3 ovarian
[25] = test system: XF 498 CNS
[26] = test system: UACC-257 melanoma
[27] = test system: SF-539 CNS
[28] = test system: OVCAR-4 ovarian
[29] = test system: NCI-H460 lung
[30] = test system: HOP-92 NSCLC
[31] = test system: SF-268 CNS
[32] = test system: SK-OV-3 ovarian
[33] = test system: P388 leukemia
[34] = test system: DLD-1 colon
[35] = test system: SN12K1 renal
[36] = test system: SW-620 colon
[37] = test system: NCI-H23 lung
[38] = test system: IGROV1 ovarian
[39] = test system: SN12C renal
[40] = test system: OVCAR-8 ovarian
[41] = test system: NCI-H522 lung
[42] = test system: COLO 205 colon
[43] = test system: A498 renal
[44] = test system: SK-MEL-2 melanoma
[45] = test system: K-562 leukemia
[46] = test system: HCT-15 colon
[47] = test system: KM12 colon
[48] = test system: SF-295 CNS
[49] = test system: NCI-H226 lung
[50] = test system: DMS 114 small cell lung
[51] = test system: NCI/ADR-RES ovarian
[52] = test system: HCT-116 colon
[53] = test system: RPMI-8226 leukemia
[54] = test system: DMS 273 small cell lung
[55] = test system: HOP-62 NSCLC
[56] = test system: P388/ADR leukemia
[57] = test system: HT29 colon
[58] = test system: ACHN renal
[59] = test system: LXFL 529 NSCLC
[60] = test system: MDA-MB-231 breast
[61] = test system: SR leukemia
[62] = test system: TK-10 renal
[63] = test system: 786-0 renal
[64] = test system: MDA-MB-435
[65] = test system: RXF-631 renal
[66] = test system: HS 578T breast
[67] = test system: MDA-N
[68] = test system: PC-3 prostate
[69] = test system: DU-145 prostate
[70] = test system: M14 melanoma
[71] = test system: BT-549 breast
[72] = test system: T-47D breast

With CC1(C)CC2(CC(C)(C)N1O)NC(=O)OC2=O the TGI [1] was > 100 µM, the TGI [2] was > 100 µM and the TGI [3] was > 100 µM. For the same compound, the TGI [4] was > 100 µM, the TGI [5] was > 100 µM and the TGI [6] was > 100 µM. The TGI [7] was > 100 µM, the TGI [8] was > 100 µM and the TGI [9] was > 100 µM. The TGI [10] was > 100 µM, the TGI [11] was > 100 µM and the TGI [12] was > 100 µM. The TGI [13] was > 100 µM, the TGI [14] was > 100 µM and the TGI [15] was > 100 µM. For the same compound, the TGI [16] was > 100 µM, the TGI [17] was > 100 µM and the TGI [18] was > 100 µM. For the same compound, the TGI [19] was > 100 µM, the TGI [20] was > 100 µM and the TGI [21] was > 100 µM. For the same compound, the TGI [22] was > 100 µM, the TGI [23] was > 100 µM and the TGI [24] was > 100 µM. The TGI [25] was > 100 µM, the TGI [26] was > 100 µM and the TGI [27] was > 100 µM. The TGI [28] was > 100 µM, the TGI [29] was > 31.6 µM and the TGI [30] was > 100 µM. The TGI [31] was > 100 µM, the TGI [32] was > 100 µM and the TGI [33] was > 100 µM. The TGI [34] was > 100 µM, the TGI [35] was > 100 µM and the TGI [36] was > 100 µM. For the same compound, the TGI [37] was > 100 µM, the TGI [38] was > 100 µM and the TGI [39] was > 100 µM. The TGI [40] was > 100 µM, the TGI [41] was > 100 µM and the TGI [42] was > 100 µM. The TGI [43] was > 100 µM, the TGI [44] was > 100 µM and the TGI [45] was > 100 µM. The TGI [46] was > 100 µM, the TGI [47] was > 100 µM and the TGI [48] was > 100 µM. For the same compound, the TGI [49] was > 100 µM, the TGI [50] was > 100 µM and the TGI [51] was > 100 µM. For the same compound, the TGI [52] was > 100 µM, the TGI [53] was > 100 µM and the TGI [54] was > 100 µM. The TGI [55] was > 100 µM, the TGI [56] was > 100 µM and the TGI [57] was > 100 µM.
In the case of O=C1CC(c2[nH]nc3ccccc23)C(=O)N1c1ccccc1 (stereo not given), the TGI [1] is reported as > 100 µM, the TGI [2] is reported as > 100 µM and the TGI [3] is reported as > 100 µM. The TGI [4] was > 100 µM, the TGI [5] was > 100 µM and the TGI [58] was > 100 µM. For the same compound, the TGI [59] was > 100 µM, the TGI [6] was > 100 µM and the TGI [7] was > 100 µM. The TGI [8] was > 71.8 µM, the TGI [9] was > 100 µM and the TGI [10] was > 100 µM. For the same compound, the TGI [11] was > 100 µM, the TGI [12] was > 100 µM and the TGI [13] was 70.4 µM. The TGI [14] was > 100 µM, the TGI [15] was > 100 µM and the TGI [60] was > 100 µM. For the same compound, the TGI [16] was > 100 µM, the TGI [17] was > 100 µM and the TGI [18] was > 100 µM. The TGI [19] was > 100 µM, the TGI [20] was > 100 µM and the TGI [21] was > 100 µM. The TGI [61] was > 100 µM, the TGI [22] was > 100 µM and the TGI [23] was > 100 µM. For the same compound, the TGI [24] was > 100 µM, the TGI [62] was > 100 µM and the TGI [63] was > 100 µM. For the same compound, the TGI [25] was > 100 µM, the TGI [26] was > 100 µM and the TGI [27] was > 100 µM. For the same compound, the TGI [64] was > 100 µM, the TGI [65] was > 100 µM and the TGI [28] was > 100 µM. For the same compound, the TGI [29] was > 100 µM, the TGI [30] was > 100 µM and the TGI [31] was > 100 µM. For the same compound, the TGI [32] was > 100 µM, the TGI [66] was > 100 µM and the TGI [34] was > 100 µM. For the same compound, the TGI [67] was > 100 µM, the TGI [36] was > 100 µM and the TGI [37] was > 100 µM. The TGI [38] was > 100 µM, the TGI [39] was > 100 µM and the TGI [40] was > 100 µM. For the same compound, the TGI [41] was > 100 µM, the TGI [42] was > 100 µM and the TGI [43] was > 100 µM. The TGI [44] was > 100 µM, the TGI [45] was > 80.1 µM and the TGI [46] was > 100 µM. For the same compound, the TGI [47] was > 100 µM, the TGI [48] was > 100 µM and the TGI [49] was > 100 µM. The TGI [68] was > 100 µM, the TGI [50] was > 100 µM and the TGI [51] was > 100 µM. For the same compound, the TGI [52] was > 100 µM, the TGI [69] was > 100 µM and the TGI [70] was > 100 µM. The TGI [53] was > 100 µM, the TGI [54] was > 100 µM and the TGI [71] was > 100 µM. The TGI [55] was > 100 µM, the TGI [57] was > 100 µM and the TGI [72] was > 100 µM.
C=CCO/N=C(\OC(=O)c1ccc([N+](=O)[O-])cc1)c1ccccc1 was tested, and the TGI [1] was > 100 µM, the TGI [3] was > 100 µM and the TGI [4] was > 100 µM. For the same compound, the TGI [5] was > 100 µM, the TGI [58] was > 100 µM and the TGI [59] was > 100 µM. For the same compound, the TGI [8] was > 100 µM, the TGI [9] was > 100 µM and the TGI [10] was > 100 µM. The TGI [11] was > 100 µM, the TGI [12] was > 100 µM and the TGI [15] was > 100 µM. The TGI [16] was > 100 µM, the TGI [17] was > 100 µM and the TGI [18] was > 100 µM. The TGI [19] was > 100 µM, the TGI [20] was > 100 µM and the TGI [22] was > 100 µM. The TGI [23] was > 100 µM, the TGI [24] was > 100 µM and the TGI [62] was > 100 µM. The TGI [63] was > 100 µM, the TGI [27] was > 100 µM and the TGI [65] was > 100 µM. The TGI [28] was > 100 µM, the TGI [29] was > 100 µM and the TGI [30] was > 100 µM. The TGI [31] was > 100 µM, the TGI [32] was > 100 µM and the TGI [34] was > 100 µM. For the same compound, the TGI [36] was > 100 µM, the TGI [37] was > 100 µM and the TGI [38] was > 100 µM. The TGI [39] was > 100 µM, the TGI [40] was > 100 µM and the TGI [42] was > 100 µM. The TGI [43] was > 100 µM, the TGI [44] was > 100 µM and the TGI [45] was > 100 µM. For the same compound, the TGI [46] was > 100 µM, the TGI [47] was > 100 µM and the TGI [48] was > 100 µM. For the same compound, the TGI [49] was > 100 µM, the TGI [50] was > 100 µM and the TGI [70] was > 100 µM. The TGI [53] was > 100 µM, the TGI [54] was > 100 µM and the TGI [55] was > 100 µM. The TGI [57] was > 100 µM.
